Results taken from patent US20260262643A1, “HERBICIDAL BENZOXAZINES” (FMC CORPORATION, priority 2022, published 2026).

What was measured:
ryegrass, Italian [1] = assay: Test C postemergence; type: in vivo, Lolium multiflorum; conditions: Postemergence, 1000 g ai/ha
How it was run: (§1)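 Pre: seeds in loam/sand, directed soil spray. Post: 1–2 leaf plants, 2–10 cm. Cmpd in non-phytotoxic solvent + surfactant. Greenhouse 10 d; visual rating vs untreated, 0 = none, 100 = complete control.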

corn = assay: Test C postemergence; type: in vivo, Zea mays; conditions: Postemergence, 1000 g ai/ha
How it was run: as §1

blackgrass = assay: Test C postemergence; type: in vivo, Alopecurus myosuroides; conditions: Postemergence, 1000 g ai/ha
How it was run: as §1

barnyardgrass [2] = assay: Test C postemergence; type: in vivo, Echinochloa crusgalli; conditions: Postemergence, 1000 g ai/ha
How it was run: as §1

Pigweed, Redroot [3] = assay: Test C postemergence; type: in vivo, Amaranthus retroflexus; conditions: 1000 g ai/ha
Excerpt: (§2) Seeds of plant species selected from barnyardgrass (Echinochloa crusgalli), blackgrass (Alopecurus myosuroides), corn (Zea mays), foxtail, giant (giant foxtail, Setaria faberi), green foxtail (Setaria viridis), goosegrass (Eleusine indica), kochia (Bassia scoparia), oat, wild (wild oat, Avena fatua), pigweed, palmer (palmer amaranth, palmer pigweed, Amaranthus palmeri), Pigweed, Redroot (redroot pigweed, Amaranthus retroflexus), ragweed (common ragweed, Ambrosia artemisiifolia), ryegrass, Italian ([…] ryegrass, Lolium multiflorum), soybean (Glycine max), and wheat (Triticum aestivum) were planted into a blend of loam soil and sand and treated preemergence with a directed soil spray using test chemicals formulated in a non-phytotoxic solvent mixture which included a surfactant. At the same time, plants selected from these crops and weed species and also galium (catchweed bedstraw, Galium aparine) and horseweed (Erigeron canadensis) were planted in pots containing the same blend of loam soil and sand and treated with postemergence applications of test chemicals formulated in the same manner. Plants ranged in height from 2 to 10 cm and were in the one- to two-leaf stage for the postemergence treatment. Treated plants and untreated controls were maintained in a greenhouse for 10 days, after which time all treated plants were compared to untreated controls and visually evaluated for injury. Plant response ratings, summarized in Table C, are based on a 0 to 100 scale where 0 is no effect and 100 is complete control. A dash (-) response means no test result.

foxtail, giant [4] = assay: Test C preemergence; type: in vivo, Setaria faberi; conditions: Preemergence, 1000 g ai/ha; visual rating after 10 days, 0 to 100 scale (0 no effect, 100 complete control)
How it was run: as §1

wheat = assay: Test C postemergence; type: in vivo, Triticum aestivum; conditions: Postemergence, 1000 g ai/ha
How it was run: as §1

ragweed [5] = assay: Test C postemergence; type: in vivo, Ambrosia artemisiifolia; conditions: Postemergence, 1000 g ai/ha
How it was run: as §1

Pigweed, Redroot [6] = assay: Test C preemergence; type: in vivo, Amaranthus retroflexus; conditions: 1000 g ai/ha, visual rating after 10 days, 0 to 100 scale (0 no effect, 100 complete control)
Excerpt: as §2

kochia [7] = assay: Test C postemergence; type: in vivo, Bassia scoparia; conditions: Postemergence, 1000 g ai/ha
How it was run: as §1

foxtail, giant [8] = assay: Test C postemergence; type: in vivo, Setaria faberi; conditions: Postemergence, 1000 g ai/ha
How it was run: as §1

galium = assay: Test C postemergence; type: in vivo, Galium aparine; conditions: Postemergence, 1000 g ai/ha
How it was run: as §1

ryegrass, Italian [9] = assay: Test C preemergence; type: in vivo, Lolium multiflorum; conditions: Preemergence, 1000 g ai/ha; visual rating after 10 days, 0 to 100 scale (0 no effect, 100 complete control)
How it was run: as §1

barnyardgrass [10] = assay: Test C preemergence; type: in vivo, Echinochloa crusgalli; conditions: Preemergence, 1000 g ai/ha; visual rating after 10 days, 0 to 100 scale (0 no effect, 100 complete control)
How it was run: as §1

ragweed [11] = assay: Test C preemergence; type: in vivo, Ambrosia artemisiifolia; conditions: Preemergence, 1000 g ai/ha; visual rating after 10 days, 0 to 100 scale (0 no effect, 100 complete control)
How it was run: as §1

kochia [12] = assay: Test C preemergence; type: in vivo, Bassia scoparia; conditions: Preemergence, 1000 g ai/ha; visual rating after 10 days, 0 to 100 scale (0 no effect, 100 complete control)
How it was run: as §1

[13] = 0 to 100 scale, 0 no effect, 100 complete control
[14] = 10 days, visual 0 to 100 scale (0 no effect, 100 complete control)

| SMILES | Plant response rating, Ryegrass, Italian (ryegrass, Italian [1]; [13]) | Plant response rating, Corn (corn; [13]) | Plant response rating, Blackgrass (blackgrass; [13]) | Plant response rating, Barnyardgrass (barnyardgrass [2]; [13]) | Plant response rating, Pigweed, Redroot (Pigweed, Redroot [3]; [13]) | Plant response rating, Foxtail, Giant (foxtail, giant [4]) | Plant response rating, Wheat (wheat; [13]) | Plant response rating, Ragweed (ragweed [5]; [13]) | Plant response rating, Pigweed, Redroot (Pigweed, Redroot [6]) | Plant response rating, Kochia (kochia [7]; [13]) | Plant response rating, Foxtail, Giant (foxtail, giant [8]; [13]) | Plant response rating, Galium (galium; [13]) | Plant response rating, Ryegrass, Italian (ryegrass, Italian [9]) | Plant response rating, Barnyardgrass (barnyardgrass [10]) | Plant response rating, Ragweed (ragweed [11]) | Plant response rating, Kochia (kochia [12]) | Plant response rating, Ryegrass, Italian (ryegrass, Italian [1]; [14]) | Plant response rating, Corn (corn; [14]) | Plant response rating, Blackgrass (blackgrass; [14]) | Plant response rating, Barnyardgrass (barnyardgrass [2]; [14]) | further results |
| --- | --- | --- | --- | --- | --- | --- | --- | --- | --- | --- | --- | --- | --- | --- | --- | --- | --- | --- | --- | --- | --- |
| C[C@H]1CN(C(=O)c2cccc(-n3ccnn3)c2)c2cccc(Cl)c2O1 [Compound 199] | 40 | 10 | 20 | 30 | 40 | 50 | 0 | 0 | 20 | 10 | 20 | 20 | 30 | 0 | 0 | 0 |  |  |  |  |  |
| CC1CN(C(=O)c2ccnc(-c3ccccn3)c2)c2cccc(Cl)c2O1 (stereo not drawn) [Compound 198] | 0 | 0 | 0 | 20 | 0 | 0 | 20 | 0 | 0 | 0 | 0 | 0 | 0 | 10 | 0 | 0 |  |  |  |  |  |
| CCC1CN(C(=O)c2ccnc(-c3cccnc3)c2)c2cccc(Cl)c2O1 (racemic) [Compound 286] |  |  |  |  |  | 0 |  |  | 0 |  |  |  | 0 | 0 | 0 | 0 | 0 | 0 | 0 | 0 | Plant response rating, Pigweed, Redroot (Pigweed, Redroot [3]; [14]): 0; Plant response rating, Wheat (wheat; [14]): 0; Plant response rating, Ragweed (ragweed [5]; [14]): 0; Plant response rating, Kochia (kochia [7]; [14]): 0; Plant response rating, Foxtail, Giant (foxtail, giant [8]; [14]): 0; Plant response rating, Galium (galium; [14]): 0 |
| C[C@H]1CN(C(=O)c2cccc(-c3ccncn3)c2)c2cccc(Cl)c2O1 [Compound 287] |  |  |  |  |  | 0 |  |  | 0 |  |  |  | 20 | 60 | 0 | 30 | 0 | 0 | 0 | 20 | Plant response rating, Pigweed, Redroot (Pigweed, Redroot [3]; [14]): 20; Plant response rating, Wheat (wheat; [14]): 0; Plant response rating, Ragweed (ragweed [5]; [14]): 0; Plant response rating, Kochia (kochia [7]; [14]): 10; Plant response rating, Foxtail, Giant (foxtail, giant [8]; [14]): 10; Plant response rating, Galium (galium; [14]): 20 |
| CC1CN(C(=O)c2ccnc(-n3ccnc3)c2)c2cccc(Cl)c2O1 (stereo not drawn) [Compound 197] | 0 | 0 | 0 | 0 | 50 | 30 | 0 | 0 | 30 | 10 | 0 | 30 | 0 | 0 | 0 | 0 |  |  |  |  |  |
| CC1(C)CN(C(=O)c2ccnc(-n3cncn3)c2)c2ccccc2O1 [Compound 202] | 0 |  |  | 0 | 0 | 0 | 30 | 0 | 0 | 0 | 0 | 0 | 0 | 0 | 0 | 0 |  |  |  |  | Corn plant response rating (crop injury, 0 = no effect, 100 = complete kill) at 1000 g/ha (corn; Zea mays, post-emergence, 240 h, 0 to 100 scale, 0 no effect, 100 complete control): 0%; pest or weed control at 1000 g/ha (blackgrass; Alopecurus myosuroides, post-emergence, 240 h, 0 to 100 scale, 0 no effect, 100 complete control, read-out: Plant response rating, Blackgrass): 0% |
